From PubChem BioAssay AID540371 (The Scripps Research Institute Molecular Screening Center, 2011) come the findings set out here.

Active and inactive are the calls of the source. No rule for the calls is given here. Where only a bound is given, the exact number is not on record here.

The test deals with Melanin-concentrating hormone receptor 1 (Homo sapiens) (UniProt Q99705). The test is described as follows: MCH receptor 1 blockade in cells – cell-based, fluorescence, dose response, set 3, selectivity assay for GPR7 antagonist project, late-stage follow-up (AID 540371). The conditions noted are these: MCHR1-expressing cells.

Regarding `CCOC(=O)C(c1cccc2ccccc12)n1ncc(Cl)c(Oc2ccc(OC)cc2)c1=O` (stereo not drawn), the IC50 reads like this: (run 1) > 20 µM (inactive); (run 2) > 20 µM (inactive); (run 3) > 20 µM (inactive).

For `COc1ccc(Oc2c(Cl)cnn(C(c3ccccc3)c3ccccc3)c2=O)cc1`, the IC50 result (run 1) was “inactive”. Moreover, the IC50 was > 20 µM (inactive) (run 2) and 7.22 µM (run 3).

On to `COc1ccc(Oc2c(Cl)c(C#N)nn(Cc3ccccc3C)c2=O)cc1`, for which the IC50 is, setting by setting: (run 1) 2.52 µM; (run 2) 2.33 µM; (run 3) 2.71 µM.

For the compound `COc1ccc(Oc2c(Cl)cnn(C(C(=O)c3ccccc3)c3ccccc3)c2=O)cc1` (stereo not drawn), the IC50 entry (run 1) is “inactive”. The IC50 was > 20 µM (inactive) (run 2) and > 20 µM (inactive) (run 3).

Regarding `O=c1c(Oc2ccc3c(c2)CCO3)c(Cl)cnn1Cc1cccc2ccccc12`, the IC50 is 7.4 µM (run 1), > 20 µM (inactive) (run 2) and > 20 µM (inactive) (run 3).

`COc1ccc(Oc2c(Cl)cnn(Cc3c4ccccc4cc4ccccc34)c2=O)cc1`: the IC50 runs as follows: (run 1) > 20 µM (inactive); (run 2) > 20 µM (inactive). For the setting “run 3”, the IC50 result is “inactive”.

With `COc1ccc(Oc2c(Cl)cnn(Cc3cc(C)cc(C)c3)c2=O)cc1`, the IC50 (run 1) is 1.5 µM and the IC50 (run 3) was 6.46 µM. Further, for the setting “run 2”, the IC50 result was “inactive”.

In the case of `COc1ccc(Oc2c(Cl)cnn(Cc3ccc4ccccc4c3)c2=O)cc1`, the IC50 (run 1) was 4.01 µM. The IC50 result reads like this: (run 2) “inactive”; (run 3) “inactive”.

With `COc1ccc(Oc2c(Cl)cnn(Cc3ccccc3)c2=O)cc1`, the IC50 (run 1) was 8.51 µM. The IC50 entry (run 2) is “inactive” and the IC50 result (run 3) was “inactive”.

In the case of `COc1ccc(Oc2c(C#N)cnn(Cc3cccc4ccccc34)c2=O)cc1`, the IC50 was 2.09 µM (run 1), 2.25 µM (run 2) and 2.22 µM (run 3).

As for `CCOc1ccc(Oc2c(Cl)cnn(C3c4ccccc4-c4ccccc43)c2=O)cc1`, the IC50 (run 1) is > 20 µM (inactive), the IC50 (run 2) was > 20 µM (inactive) and the IC50 (run 3) is > 20 µM (inactive).

In the case of `CCCOc1ccc(Oc2c(Cl)cnn(C3c4ccccc4-c4ccccc43)c2=O)cc1`, the IC50 runs as follows: (run 1) > 20 µM (inactive); (run 2) > 20 µM (inactive); (run 3) > 20 µM (inactive).

As to `CCc1ccc(Oc2c(Cl)cnn(Cc3cccc4ccccc34)c2=O)cc1`, the IC50 reads like this: (run 1) 1.95 µM; (run 2) 1.72 µM; (run 3) 2.08 µM.

As to `COc1ccc(Oc2c(Cl)cnn(Cc3ccccc3-c3ccccc3)c2=O)cc1`, the half-inhibitory concentration (IC50) reads like this: (run 1) 1.12 µM; (run 2) 2.24 µM; (run 3) 4.59 µM.

For `CCOc1ccc(Oc2c(Cl)c(Br)nn(Cc3cccc4ccccc34)c2=O)cc1`, the IC50 reads like this: (run 1) 2.39 µM; (run 2) 6.02 µM. Moreover, the IC50 entry (run 3) is “inactive”.

In the case of `COc1ccc(Oc2c(Cl)cnn(Cc3cccc4cnccc34)c2=O)cc1`, the IC50 (run 1) is 5.15 µM, the IC50 (run 2) is 4.96 µM and the half-inhibitory concentration (IC50) (run 3) is 5.67 µM.

Take `CCOc1ccc(Oc2c(Cl)cnn(Cc3cccc4ccccc34)c2=O)cc1`: the IC50 is, setting by setting: (run 1) 1.59 µM; (run 2) 5.22 µM; (run 3) 6.71 µM.

Consider `COc1ccc(Oc2c(Cl)cnn(Cc3ccccc3C(F)(F)F)c2=O)cc1`, for which the IC50 is 4.49 µM (run 1), 4.57 µM (run 2) and 3.34 µM (run 3).

In the case of `COc1ccc(Oc2c(Cl)cnn(Cc3cccc4ccccc34)c2=O)cc1`, the IC50 is, setting by setting: (run 1) 0.988 µM; (run 2) 1.7 µM; (run 3) 1.61 µM.

As for `COc1ccc(Oc2c(Cl)cnn(Cc3ccccc3C)c2=O)cc1`, the IC50 (run 1) is 3.06 µM, the half-inhibitory concentration (IC50) (run 2) was 7.68 µM and the IC50 (run 3) was 5.64 µM.

With `COc1ccc(Oc2c(Cl)cnn(CC(=O)C(c3ccccc3)c3ccccc3)c2=O)cc1`, the IC50 reads like this: (run 1) 2.92 µM; (run 2) 2.87 µM; (run 3) 5.49 µM.

As to `COc1ccc(Oc2c(Cl)cnn(Cc3c(F)cccc3F)c2=O)cc1`, the IC50 entry was “inactive” (run 1), “inactive” (run 2) and “inactive” (run 3).

For the compound `COc1ccc(Oc2c(Br)cnn(Cc3cccc4ccccc34)c2=O)cc1`, the IC50 by setting is: (run 1) 0.892 µM; (run 2) 2.14 µM; (run 3) 1.66 µM.

Regarding `C=Cc1nn(Cc2ccccc2C)c(=O)c(Oc2ccc(OC)cc2)c1C=C`, the IC50 is 1.43 µM (run 1), 1.31 µM (run 2) and 1.45 µM (run 3).

As to `CCCOc1ccc(Oc2c(Cl)cnn(Cc3cccc4ccccc34)c2=O)cc1`, where the note is “run 1”, the IC50 result was “inactive”. Besides, the IC50 (run 2) was > 20 µM (inactive) and the IC50 (run 3) is > 20 µM (inactive).

For the compound `COc1ccc(Nc2c(Cl)cnn(Cc3cccc4ccccc34)c2=O)cc1`, the IC50 result by setting is: (run 1) “inactive”; (run 2) “inactive”. For the same compound, under “run 3”, the IC50 is > 20 µM (inactive).

Turning to `CCOc1ccc(Oc2c(S(C)=O)cnn(Cc3cccc4ccccc34)c2=O)cc1` (stereo not drawn), for the setting “run 1”, the IC50 was 6.19 µM. For the same compound, the IC50 entry reads like this: (run 2) “inactive”; (run 3) “inactive”.

Consider `COc1ccc(Oc2c(Cl)cnn(C3c4ccccc4-c4ccccc43)c2=O)cc1`, for which the IC50 (run 1) was > 20 µM (inactive), the IC50 (run 2) was > 20 µM (inactive) and the IC50 (run 3) was > 20 µM (inactive).

In the case of `COc1ccc(Sc2c(Cl)cnn(Cc3cccc4ccccc34)c2=O)cc1`, the IC50 result is “inactive” (run 1), “inactive” (run 2) and “inactive” (run 3).

As to `COc1ccc(Oc2c(Cl)cnn(Cc3c(C)ccc4ccccc34)c2=O)cc1`, the IC50 was 0.77 µM (run 1), 0.815 µM (run 2) and 0.836 µM (run 3).

On to `CCOC(=O)C(c1ccccc1)n1ncc(Cl)c(Oc2ccc(OC)cc2)c1=O` (stereo not drawn), for which the IC50 (run 1) is 8.48 µM and the IC50 (run 3) is 8.11 µM. Also, the IC50 entry (run 2) is “inactive”.
